Entries after “also recorded” stand apart in the source; their conditions may differ.
Experiments:
[1] = test system: 6-OHDA induced SD rat Parkinson's disease models; assay: Behavioral ability tests (corner turn and descent, vertical grating device) in Parkinson's disease models; type: in vivo; details: 6-OHDA SD rats, oral 0.1 mg/kg/day
Description: In order to investigate the changes in gene expression and behavior improvement by the treatment with SL (3′-SL & 6′-SL) compositions in Parkinson's brain disease models, 13-week-old normal SD rats and Parkinson's brain disease models were purchased from Central Lab Animal (Korea). Water was freely accessible, and a commercially available pellet feed (Dooyeul Biotech, Korea) was given for one week. At 14 weeks of age, the SD rats were divided into four groups (composed of 8 animals per group): Eight 14-week-old male SD rats (normal rats; initial body weight, average 355.6±32.3 g) treated with a normal diet were used for a control group. The 6-OHDA induced SD rat Parkinson's disease models, which were administered with 6-hydroxydopamine (6-OHDA) at 8 weeks of age and supplied at 13 weeks of age, were randomly divided into three different dietary treatment groups below (8 animals per group), and these diets were maintained from 14 weeks of age for 10 weeks (total 32 animals): • Control group: Normal rats fed with a normal diet without SL administration (8 animals) • (Parkinson's disease model) group: Parkinson's disease models fed with a normal diet without SL administration (8 animals) • (Parkinson's disease model+3′-SL) group: Parkinson's disease models treated with 3′-sialyllactose (3′-SL, Sigma) (oral administration of 0.1 mg per kg of rat weight per day) in addition to the normal diet group (8 animals) • (Parkinson's disease model+6′-SL) group: Parkinson's disease models treated with 6′-sialyllactose (6′-SL, Sigma) (oral administration of 0.1 mg per kg of rat weight per day) in addition to the normal diet group (8 animals)
In FIG. 8, the vertical axis represents the corner turn time and the descent time as a result of carrying out behavioral ability tests (corner turn and descent) using a vertical grating device on a control group, (Parkinson's disease model) group, (Parkinson's disease model+3′-SL) group, and (Parkinson's disease model+6′-SL) group. The vertical grating device was in the form of an opened box of 5 cm×55 cm×8 cm, and the frant face was formed of a wiring of 0.8 cm×0.8 cm and the other surfaces were formed of black plexiglass. The bottom was made 5 cm longer for safety. In the test, the […] were placed in an upward direction at a distance of 3 cm from the top of the device, and were allowed to acclimate to the device three times for two days before testing. The above procedure was repeated if the rat could not come down within 60 seconds. The corner turn time is the time it takes for a rat facing upwards to turn downwards, and the descent time is the time obtained by subtracting the corner turn time from the overall test time for which the rat turns at the corner and descends to the bottom.

PGC-1α and related genes = assay: Gene expression by SL treatment in normal mouse models; type: in vivo; details: normal C57BL/6 mice, oral 0.1 mg/kg/day, 10 weeks, organs, skeletal muscles, abdominal fat
Experimental: In order to investigate relative gene expression changes by organs compared with before SL (3′-SL & 6′-SL) aministration, 4-week-old C57BL/6 mice were purchased from Dooyeul Biotech (Korea). Water was freely accessible, and a commercially available pellet feed (Dooyeul Biotech, Korea) was given for two weeks. […]
Sialyllactose or deionized water was orally administered daily. […] The dietary intake and body weight change were measured every 5 days. […]
The gene expression changes by administration of the SL (3′-SL & 6′-SL) compositions were quantitatively compared for eight main organs (heart, hippocampus, brain, spinal cord, lung, liver, spleen, and kidney), three skeletal muscles (soleus muscle, quadriceps femoris muscle, and gastrocnemius muscle), and abdominal fat. RNA was extracted by TRIzol agent (Invitrogen). cDNA was synthesized by using RNA, which has been extracted as above and quantified, and a reverse transcription system (Promega, USA). The expression patterns of PGC-1α and related genes were measured by using pre-designed primers and probes (Applied Biosystems; PGC-1α, Mm00447181_m1, GAPDH, and Mm99999915_q1) for the synthesized cDNA and analysis targets (Fndc5, PGC-1α, Erra, UCP1, SOD2, and GPX1). […]

Compound	corner turn time [1]	descent time [1]	expression levels of analysis targets (Fndc5, PGC-1α, Erra, UCP1) vs control group (PGC-1α and related genes)	expression levels of analysis targets (Fndc5, PGC-1α, Erra, UCP1) vs control group (PGC-1α and related genes; 0.1 mg/kg/day)
CC(=O)N[C@H]1[C@H]([C@H](O)[C@H](O)CO)O[C@@](OC[C@H]2O[C@@H](O[C@H]3[C@H](O)[C@@H](O)[C@H](O)O[C@@H]3CO)[C@H](O)[C@@H](O)[C@H]2O)(C(=O)O)C[C@@H]1O [6′-SL, α-NeuNAc-(2→6)-β-D-Gal-(1→4)-D-Glc]	almost similar to those in the control group	almost similar to those in the control group	higher than the negative control group	
CC(=O)N[C@H]1[C@H]([C@H](O)[C@H](O)CO)O[C@@](O[C@H]2[C@@H](O)[C@@H](CO)O[C@@H](O[C@H]3[C@H](O)[C@@H](O)C(O)O[C@@H]3CO)[C@@H]2O)(C(=O)O)C[C@@H]1O (stereo partly drawn) [3′-SL, α-NeuNAc-(2→3)-β-D-Gal-(1→4)-D-Glc]	relatively low compared with 6′-SL	relatively low compared with 6′-SL		higher than the negative control group; also recorded: less effective than the 6′-SL administration groups
